Source: patent publication US20260366023A1, “SORTILIN INHIBITORS FOR TREATMENT OF PATIENTS WITH FUNCTIONAL NEUROENDOCRINE TUMORS” (priority 2023, published 2026)

Tests used:
[1] = cited from earlier work
[2] = cited from earlier work; remark: listed apart in the source
sortilin [3] = details: Lee et al., 2014; cited from earlier work
[4] = system: BON neuroendocrine tumor cells; assay: Serotonin (5HT) content of BON cell lysates after sortilin inhibition, HPLC; assay type: cell-based, human; details: 10 μM; 23 h in serotonin free medium, then fresh inhibitor for two more hours; compared to control
Protocol: (§1) (A)-(D) BON neuroendocrine tumor cells were incubated for 23 h in serotonin free medium with (Sort Inh) or without (Control) the sortilin inhibitor AF38469 (10 μM). Afterwards, the serotonin (5HT, A), Tryptophan (TRP, B) and Tyrosin (TYR, C) content as well as the content of the serotonin metabolite 5-hydroxyindoleacetic acid (5-HIAA) in the cell culture supernatant was assessed using high performance liquid chromatography (HPLC). The cells were treated with fresh sortilin inhibitor for two more hours. Subsequently, the 5HT, (E, F), TRP, (G, H) and TYR (I, J) content in the cell lysates was measured in the presence or absence of the secretion inductor of monoamines Paramethoxyamphetamin (PMA) via HPLC as well.
(§2) Next, we wanted to analyze whether sortilin has a functional role in hormone production or secretion of neuroendocrine tumors. We focused on one of the most relevant functional syndromes, i. e. the carcinoid syndrome which is caused due to the overproduction and secretion of serotonin (Clement et al., 2020). […] Afterwards we measured the serotonin (5HT) content in the cell culture supernatant by using high performance liquid chromatography (HPLC) (FIG. 3A-D). […] Subsequently, the 5HT content in the cell lysates was measured by using HPLC as well (FIG. 3E-J).

[5] = system: murine intestinal organoids enriched with neuroendocrine cells; assay: Serotonin content of murine intestinal organoids enriched with neuroendocrine cells, HPLC; assay type: cell-based; details: 10 μM, four days, organoid lysates, vs control
Protocol: FIG. 7: Effect of sortilin inhibition on serotonin content of neuroendocrine organoids. (A) Experimental scheme for testing the effects of sortilin inhibition on serotonin levels in neuroendocrine organoids. Murine intestinal organoids are generated and enriched with neuroendocrine cells as previously described in (Kawasaki et al, 2018; Basak et al, 2017). […] Organoids are subsequently incubated four days in the absence (control) or the presence of the sortilin inhibitor AF38469 (10 μM). The lysates of these organoids are next harvested, and serotonin levels are measured by HPLC.
Some of these organoids were treated additionally four days with the sortilin inhibitor AF38469 (10 μM). Subsequently, the lysates of these organoids were harvested, and serotonin was measured by HPLC (FIG. 7A).

[6] = system: BON neuroendocrine tumor cells; assay: Serotonin (5HT) content of BON cell culture supernatant (secretion) after sortilin inhibition, HPLC; assay type: cell-based, human
Protocol: as §1, §2

sortilin [7] = details: Schroder et al, 2014; cited from earlier work
[8] = Schroder et al, 2014; cited from earlier work
BON cells = assay: Alamar Blue cell proliferation/viability assay of BON cells after sortilin inhibition; assay type: cell-based, human; details: 5 d of sortilin inhibition
Protocol: FIG. 4: Proliferation of BON cells after sortilin inhibition. To exclude the possibility of toxic effects of sortilin inhibition on BON cells, a cell proliferation assay was performed using the Alamar Blue cell viability assay 5 days after sortilin inhibition.
To exclude the possibility of toxic effects of sortilin inhibition on the BON cells and thereby reducing 5HT production, we performed a cell proliferation assay using Alamar Blue.

sortilin [9] = details: Phase 2 and Phase 3 clinical trials, including NCT04374136, NCT03987295, NCT03636204 and NCT05053035; cited from earlier work

Molecule: Cc1cc(=O)oc2c(CN[C@@H](CC(C)C)C(=O)O)c(O)ccc12 [AF40431, (2S)-2-{[(7-hydroxy-4-methyl-2-oxo-2H-chromen-8-yl)methyl]amino}-4-methylpentanoic acid]
- solubility [1]: comparably poor
- membrane permeability [2]: comparably poor

Molecule: Cc1ccc(C(C)(C)C)c(OCCN2CCCC(C)C2)c1 (stereo not drawn) [MPEP, 1-[2-(2-tert-butyl-5-methylphenoxy)-ethyl]-3-methylpiperidine]
- degradation of sortilin (sortilin [3]): increasing
- sortilin protein levels (sortilin [3]): suppressing

Molecule: Cc1cccc(NC(=O)c2ccc(C(F)(F)F)cc2C(=O)O)n1 [AF38469, 2-[[(6-methyl-2-pyridinyl)amino]carbonyl]-5-(trifluoromethyl)-benzoic acid]
- cellular content of 5HT [4]: significantly lower
- concentration of serotonin (5HT) per cell [5]: lower concentration
- concentration of 5HT in the supernatants ([6]; 10 μM, 23 h in serotonin free medium, HPLC): below the detection level
- secretion of serotonin by NEN cells ([6]; NEN cells, summary statement referring to the Examples): suppress
- selectivity for sortilin over several of its naturally occurring ligands, including neurotensin-1 (sortilin [7]): highly selective
- oral bioavailability [8]: orally bioavailable
- reduction in cell proliferation (BON cells): could exclude any reduction in cell proliferation

B1: AL001: anti-sortilin antibody; heavy chain having an amino acid sequence of SEQ ID NO: 1 and a light chain having an amino acid sequence of SEQ ID NO: 2 (antibody, chains of the INN, looked up, V domains shown)
VH: QVQLQESGPGLVKPSETLSLTCAVSGYSISSGYYWGWIRQPPGKGLEWIGTIYHSGSTYYNPSLKSRVTISVDTSKNQFSLKLSSVTAADTAVYYCARQGSIKQGYYGMDVWGQGTTVTVSS
VL: DIVMTQSPLSLPVTPGEPASISCRSSQSLLRSTGYNYLDWYLQKPGQSPQLLIYLGSNRASGVPDRFSGSGSGTDFTLKISRAEAEDVGVYYCMQQQEAPLTFGGGTKVEIK
- treatment of frontotemporal dementia and/or ALS (sortilin [9]): successfully tested
